Data as given in patent US7148026B2, “Dog melanin-concentrating hormone receptor” (Merck & Co., Inc., priority 2000, dated 2006).

Test system: dog MCH receptor
Test: Aequorin bioluminescence assay in 293-AEQ17 cells transfected with dog MCH receptor
Assay type: cell-based
Conditions: 293-AEQ17 cells transfected with dog MCH receptor plasmid; fractional response of aequorin luminescence; read-out: EC50 value for activation of the dog MCH receptor
Method: Measurement of MCH receptor expression in the aequorin-expressing stable reporter cell line 293-AEQ17 (Button et al., 1993, Cell Calcium, 14, 663–671) was performed using a Luminoskan RT luminometer (Labsystems Inc., Gaithersburg, Md.) controlled by custom software written for a Macintosh PowerPC 6100. 293-AEQ17 cells (8×10^5 cells plated 18 hours before transfection in a T75 flask) were transfected with 22 μg of dog MCH receptor plasmid DNA: 264 μg lipofectamine.
Following approximately 40 hours of expression the apo-aequorin in the cells was charged for 4 hours with coelenterazine (10 μM) under reducing conditions (300 μM reduced glutathione) in ECB buffer (140 mM NaCl, 20 mM KCl, 20 mM HEPES-NaOH [pH=7.4], 5 mM glucose, 1 mM MgCl2, 1 mM CaCl2, 0.1 mg/ml bovine serum albumin). […] 100 μl of cell suspension (corresponding to 5×10^4 cells) was then injected into the test plate containing MCH, and the integrated light emission was recorded over 30 seconds, in 0.5 second units. 20 μL of lysis buffer (0.1% final Triton X-100 concentration) was then injected and the integrated light emission recorded over 10 seconds, in 0.5 second units.
The “fractional response” values for each well were calculated by taking the ratio of the integrated response to the initial challenge to the total integrated luminescence including the Triton X-100 lysis response. […]

Sequence of dog MCH receptor (as listed by the source): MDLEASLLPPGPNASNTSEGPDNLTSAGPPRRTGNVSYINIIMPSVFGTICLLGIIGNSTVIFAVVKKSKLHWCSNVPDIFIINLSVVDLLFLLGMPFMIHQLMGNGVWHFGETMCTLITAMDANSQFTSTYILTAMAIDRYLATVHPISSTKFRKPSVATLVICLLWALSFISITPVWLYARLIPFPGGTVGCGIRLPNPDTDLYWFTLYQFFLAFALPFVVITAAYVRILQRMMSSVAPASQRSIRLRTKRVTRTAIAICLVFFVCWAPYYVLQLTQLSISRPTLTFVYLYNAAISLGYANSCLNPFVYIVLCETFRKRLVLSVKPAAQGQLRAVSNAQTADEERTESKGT

EC50: ~30 nM
Substance: Melanin-concentrating hormone [MCH]
